Laboratory results published in patent publication US12187663B2, “Thyromimetics with a biphenylmethane scaffold and their use” (INTERNATIONAL SOCIETY FOR DRUG DEVELOPMENT S.R.L., priority 2019, dated 2025).

Legend:
[1] = Serum levels of cholesterol, glucose, transaminases, amylase, lipase, bilirubin and triglycerides; assay type: in vivo, F-344 rats; conditions: rats, 3 days treatment
Method: Five-week-old male F-344 rats purchased from Charles River (Milano, Italy) were maintained on a standard laboratory diet (Ditta Mucedola, Milano, Italy). The animals were given food and water ad libitum with a 12-h light/dark daily cycle and were acclimated for 1 week before the start of the experiment. All procedures were performed in accordance with the Guidelines for the Care and Use of Laboratory Animals and were approved by the Italian Ministry of Health. […] A control group received the vehicle (DMSO 5% in corn oil). Additional two groups received daily injections of either IS25 or TG68 at the dose of 75 μg/100 g b.wt. intraperitoneally for 3 days. For the measurement of hepatocyte proliferation, animals received bromodeoxyuridine (BrdU; 1 g/1 L) in drinking water during the 3-day treatment period (FIGS. 7A and B).
Lack of severe liver toxicity was confirmed by measuring the levels of serum transaminases and bilirubin (FIG. 8) that were within the range of normal values for F-344 rats of the same age (Charles River datasheet). Pancreas damage was also evaluated by measuring the levels of amylase and lipase.

pancreatic acinar cells = test: Pancreatic acinar cell proliferation (BrdU labeling index); assay type: in vivo, rats; conditions: one week; T3 4 mg/kg diet; GC1 50 μg/kg gavage once daily; TG68 and IS25 50 μg/kg in drinking water
Method: FIG. 9. […] BrdU (1 mg/ml) in drinking water was given all throughout the experimental time. […] LI was expressed as number of BrdU-positive acinar cell nuclei/100 nuclei. At least 2000 acinar cells per pancreas were scored. Results are expressed as means±SE of 3 to 5 rats per group. (one way ANOVA). ***Statistically significant from control; P<0.001.
BrdU (1 mg/ml) in drinking water was given all throughout the experimental time. […] LI was expressed as number of BrdU-positive acinar cell nuclei/100 nuclei. At least 2000 acinar cells per pancreas were scored.

Structure (SMILES): CC(=O)Nc1ccc(Cc2c(C)cc(OCC(=O)O)cc2C)cc1C(C)C [TG68, 2-(4-(4-acetamido-3-isopropylbenzyl)-3,5-dimethylphenoxy)acetic acid]
- serum amylase (pancreas damage) [1]: No significant changes
- serum cholesterol [1]: no change
- serum glucose [1]: no change
- serum lipase (pancreas damage) [1]: No significant changes
- pancreatic acinar cell proliferation (BrdU-positive acinar cells) (pancreatic acinar cells): mitogenic only for the liver and not for other tissues

Structure (SMILES): Cc1cc(OCC(=O)O)cc(C)c1Cc1ccc(N)c(C(C)C)c1 [IS25, 2-(4-(4-amino-3-isopropylbenzyl)-3,5-dimethylphenoxy)acetic acid]
- serum amylase (pancreas damage) [1]: No significant changes
- serum cholesterol [1]: no change
- serum glucose [1]: no change
- serum lipase (pancreas damage) [1]: No significant changes
- pancreatic acinar cell proliferation (BrdU-positive acinar cells) (pancreatic acinar cells): mitogenic only for the liver and not for other tissues
